Results from US7160700B2, “Glycosyltransferase genes” (International Flower Developments Proprietary Limited, priority 2000, dated 2007).

How the values were obtained:
[1] = target: T1, 3′GT (Gentiana triflora, UniProt Q8H0F2); experiment: Analysis of substrate specificity of purified 3′GT expressed in Escherichia coli (glucose transfer from UDP-glucose, HPLC); assay type: biochemical, gentian; conditions: compound used as substrate; for relative activity: activity to delphinidin 3,5-glucoside assumed to be 100%; for 3′GT activity to substrate (qualitative): purified sample of 3′GT from E. coli
T1 construct: the region from the initiation methionine to poly A of pG3′GT7 was inserted in the NcoI/KpnI site of E. coli expression vector pQE61; made in house; host or cells: Escherichia coli JM105 (vector pQE61, plasmid pG3′Q1)
T1 sequence (Q8H0F2 1-482): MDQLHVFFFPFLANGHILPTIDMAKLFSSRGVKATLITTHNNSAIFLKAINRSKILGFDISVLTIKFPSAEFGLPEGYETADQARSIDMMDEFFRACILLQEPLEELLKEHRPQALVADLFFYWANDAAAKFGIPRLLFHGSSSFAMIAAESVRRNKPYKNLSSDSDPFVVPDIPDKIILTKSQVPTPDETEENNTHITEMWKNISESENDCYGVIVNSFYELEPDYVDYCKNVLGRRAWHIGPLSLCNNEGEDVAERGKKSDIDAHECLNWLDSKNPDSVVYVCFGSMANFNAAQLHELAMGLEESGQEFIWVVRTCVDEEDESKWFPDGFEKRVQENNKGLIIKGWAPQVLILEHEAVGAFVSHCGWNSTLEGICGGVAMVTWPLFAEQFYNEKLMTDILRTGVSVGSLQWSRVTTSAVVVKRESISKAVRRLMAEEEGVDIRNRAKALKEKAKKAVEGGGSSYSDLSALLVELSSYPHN
Description: (§1) 20 μl of the crude enzyme extract solution, 10 μl of 0.5M potassium phosphate (pH 8.5), 10 μl of 5 mM UDP-glucose, 10 μl of delphinidin 3,5-diglucoside (1.5 mg/ml) were mixed and maintained at 30° C. for 10 minutes. Then, following the procedure of Fujiwara et al. (Fujiwara et al. Plant J. (1998)), reaction was terminated, and the reaction product was analyzed using high performance liquid chromatography (HPLC). As a result, it was determined that gentian flower petals contain an enzyme having activity to transfer a glycosyl group to the 3′-position of an anthocyanin.
Using the PCR method, an NcoI site was introduced so as to coincide with the initiation methionine codon of pG3′GT7, and the region from the initiation methionine to poly A of pG3′GT7 was inserted in the NcoI/KpnI site of E. coli expression vector pQE61 (QIAGEN). The obtained E. coli expression vector was denoted by pG3′Q1. pG3′Q1 was introduced into the Escherichia coli JM105 strain, and after preculturing overnight at 37° C., a part of the precultured medium was innoculated into 8 L of a main culture medium, and was cultured at 27° C. until OD600=0.6. To induce expression of the 3′GT gene, IPTG was added so as to reach a final concentration of 0.4 mM, and was cultured overnight at 27° C. After cells were collected, washed, and suspended in 400 ml of crushing buffer (25 mM Tris-HCl (pH 7.5), 250 mM NaCl, 1 mM EDTA, 0.5% β-mercaptoethanol), the cells were disrupted by ultrasonic treatment. After centrifuging, the resultant supernatant was subjected to processing with DE52, and a 40–70% ammonium sulfate precipitate fraction was recovered. After desalting, the crude protein solution was loaded onto a DEAE-TOYOPEARL (Toso Co.) preequilibrated with buffer C (25 mM Tris-HCl (pH 7.5), 0.5% β-mercaptoethanol), and was eluted with buffer C containing 0–0.5 M NaCl. The active fraction was recovered, adsorbed to BlueA (Amicon Co.) equilibrated buffer C, and was eluted with a linear gradient formed with the buffer C and the buffer C containing 2 M NaCl. The obtained active fraction was used in the reaction, to be described later, as a purified sample of the 3′GT portion.
Using the purified sample of the 3′GT portion obtained in Example 6, the substrate-specificity of the 3′GT was analyzed. […] Assuming the relative activity to delphinidin 3,5-glucoside to be 100%, the activity to delphinidin 3-glucosyl-5-caffeoylglucoside is about 50%. Trace amount of products (1% or less) were also observed using delphinidin or delphinidin 3-diglucoside as a substrate. From retention time of HPLC and the absorption spectrum, the reaction product is considered to be a substrate having a glycosyl group added to the 3′-position thereof.

[2] = target: T2, protein which has activity to transfer a glycosyl group to the 3′-position of anthocyanins (Gentiana triflora, UniProt Q8H0F2); experiment: Enzyme activity of extract from yeast transformed with pYG3′GT7 (measured as in Example 1, HPLC); assay type: biochemical, gentian; conditions: compound used as substrate
T2 construct: A DNA fragment of approximately 1.6 kbp, which was obtained by digestion of pG3′GT7 with XhoI, was recovered; made in house; extract after glass-bead disruption
T2 sequence (Q8H0F2 1-482): T1 sequence (Q8H0F2 1-482)
Description: as §1
A DNA fragment of approximately 1.6 kbp, which was obtained by digestion of pG3′GT7 with XhoI, was recovered. This DNA was ligated to a DNA fragment obtained by digesting pYE22m with SaII, and the obtained plasmid that has the initiation codon nearer to the promotor on pYE22m was denoted by pYG3′GT7. pYE22m was constructed according to the method as set forth in Japanese Patent Publication No. 4-228078. This plasmid was introduced into yeast cells to obtain transformed yeast cells. After the yeast cells were cultured and disrupted with glass beads, enzyme activity was measured as in Example 1 using delphinidin 3,5-diglucoside as substrate.
No activity was found in the yeast in which the plasmid was not introduced. When cyanidin 3,5-diglucoside was used as substrate, no new peak was produced.

| Molecule | relative activity [1] | 3′GT activity to substrate (qualitative) [1] | activity for adding a glycosyl group to substrate (qualitative) [2] |
| --- | --- | --- | --- |
| OC[C@H]1O[C@@H](Oc2cc3c(O[C@@H]4O[C@H](CO)[C@@H](O)[C@H](O)[C@H]4O)cc(O)cc3[o+]c2-c2cc(O)c(O)c(O)c2)[C@H](O)[C@@H](O)[C@@H]1O [delphinidin 3,5-diglucoside] | 100% | exhibits activity | exhibits activity |
| delphinidin 3-glucosyl-5-caffeoylglucoside | about 50% | exhibits activity | – |
| OC[C@H]1O[C@@H](Oc2cc3c(O[C@@H]4O[C@H](CO)[C@@H](O)[C@H](O)[C@H]4O)cc(O)cc3[o+]c2-c2ccc(O)c(O)c2)[C@H](O)[C@@H](O)[C@@H]1O [cyanidin 3,5-diglucoside] | – | not | exhibits no activity |
